Test results taken from patent US20140037583A1, “METHODS AND COMPOSITIONS SUITABLE FOR PREVENTING AND TREATING HYPERLEPTINEMIA” (priority 2011, published 2014).

Test system: Leptin mRNA in terminally differentiated canine adipocytes
Assay: Expression of leptin mRNA in canine adipocytes treated with Equol (quantitative PCR)
Assay type: cell-based
Settings: 24 hours, n=3
Description: Treatment: Terminally differentiated canine adipocytes were exposed to 200, 25, and 0 uM Equol for 24 hours. Cells were collected for RNA isolation.
RNA Isolation: Treatment cell samples were vortexed and homogenized using a Quiashredder (Qiagen, Valencia, Calif.) column according to manufacturer's directions. The homogenized lysate was collected and 1 equal volume of 64% ethanol was added to it. This mixture was then applied to an RNAqueous™ filter cartridge, (Ambion Inc., Austin, Tex.) 700 uL at a time, and centrifuged for one minute at 10,000 rpm. The cartridge was washed using 700 uL wash solution #1 and 500 uL wash solution #2/3 with centrifugation at 10,000 rpm for one minute for each wash. The filter cartridge was dried by centrifugation (10,000 rpm) for one minute. […] The resulting RNA was DNAse-treated and quantitated in a Beckman DU 640B spectrophotometer (Beckman Coulter, Inc., Brea, Calif.) at 260 nm. Additionally, quantity and quality were assessed using a bioanalyzer (Agilent, Santa Clara, Calif.) according to manufacturer's directions.
Quantitative PCR: All samples were run singularly against each primer/probe set to determine what standard curve(s) should be used. […] Values were normalized to cyclophilin A (PPIA) levels as determined by quantitative PCR. Inductions were calculated from each of the lowest sample's normalized value. […]

Compound: Oc1ccc([C@H]2COc3cc(O)ccc3C2)cc1 [Equol]
- Leptin mRNA expression (normalized to cyclophilin A, induction relative to lowest sample) (25 uM Equol): 2.58
- Leptin mRNA expression (normalized to cyclophilin A, induction relative to lowest sample) (200 uM Equol): 1.40
